≈ marks a conversion by molar mass, not a printed value.
Test system: Mycobacterium tuberculosis
Assay: Antimycobacterial activity against isoniazid-resistant Mycobacterium tuberculosis by agar dilution method
Type: functional

| Structure (SMILES) | MIC [µM] |
| --- | --- |
| COc1cc2c(cc1OC)C1=NN(C(=O)Nc3ccc(F)c(Cl)c3)C(c3ccccc3)C1C2 (centres undefined) | 12.5 (≈ 5.82 µg/mL) |
| COc1ccc(C2C3Cc4cc(OC)c(OC)cc4C3=NN2C(=O)Nc2ccc(F)c(Cl)c2)cc1 (centres undefined) | 12.5 (≈ 6.2 µg/mL) |
| COc1cc2c(cc1OC)C1=NN(C(=O)Nc3ccc(F)cc3)C(c3ccncc3)C1C2 (centres undefined) | 6.25 (≈ 2.7 µg/mL) |
| COc1cc2c(cc1OC)C1=NN(C(=O)Nc3ccc(F)cc3)C(c3ccccc3Cl)C1C2 (centres undefined) | 12.5 (≈ 5.82 µg/mL) |
| COc1cc2c(cc1OC)C1=NN(C(=O)Nc3ccc(F)cc3)C(c3ccc(F)cc3)C1C2 (centres undefined) | 0.78 (≈ 0.351 µg/mL) |
| COc1cc2c(cc1OC)C1=NN(C(=O)Nc3ccc(F)cc3)C(c3ccccc3)C1C2 (centres undefined) | 10 (≈ 4.31 µg/mL) |
| COc1ccc(C2C3Cc4cc(OC)c(OC)cc4C3=NN2C(=O)Nc2ccc(F)cc2)cc1 (centres undefined) | 12.5 (≈ 5.77 µg/mL) |
| COc1cc2c(cc1OC)C1=NN(C(=O)Nc3ccc(Br)cc3)C(c3ccncc3)C1C2 (centres undefined) | 10 (≈ 4.93 µg/mL) |
| COc1cc2c(cc1OC)C1=NN(C(=O)Nc3ccc(Br)cc3)C(c3ccccc3Cl)C1C2 (centres undefined) | 10 (≈ 5.27 µg/mL) |
| COc1cc2c(cc1OC)C1=NN(C(=O)Nc3ccc(Br)cc3)C(c3ccc(F)cc3)C1C2 (centres undefined) | 6.25 (≈ 3.19 µg/mL) |
| COc1cc2c(cc1OC)C1=NN(C(=O)Nc3ccc(Br)cc3)C(c3ccccc3)C1C2 (centres undefined) | > 10 |
| COc1cc2c(cc1OC)C1=NN(C(=O)Nc3ccc(F)c(Cl)c3)C(c3ccncc3)C1C2 (centres undefined) | 10 (≈ 4.67 µg/mL) |
| COc1cc2c(cc1OC)C1=NN(C(=O)Nc3ccc(F)c(Cl)c3)C(c3ccccc3Cl)C1C2 (centres undefined) | 12.5 (≈ 6.25 µg/mL) |
| COc1cc2c(cc1OC)C1=NN(C(=O)Nc3ccc(F)c(Cl)c3)C(c3ccc(F)cc3)C1C2 (centres undefined) | 3.12 (≈ 1.51 µg/mL) |
| COc1ccc(C2C3Cc4cc(OC)c(OC)cc4C3=NN2C(=O)Nc2ccc(F)c(Cl)c2)cc1OC (centres undefined) | 12.5 (≈ 6.57 µg/mL) |
| NNC(=O)c1ccncc1 [ISONIAZID] | 12.5 (≈ 1.71 µg/mL) |
| CO[C@H]1/C=C/O[C@@]2(C)Oc3c(C)c(O)c4c(O)c(c(/C=N/N5CCN(C)CC5)c(O)c4c3C2=O)NC(=O)/C(C)=C\C=C\[C@H](C)[C@H](O)[C@@H](C)[C@@H](O)[C@@H](C)[C@H](OC(C)=O)[C@@H]1C [RIFAMPIN] | 3.12 (≈ 2.57 µg/mL) |

Test system: Mycobacterium tuberculosis
Assay: Ratio of isoniazid MIC to compound MIC for isoniazid-resistant Mycobacterium tuberculosis
Type: functional

| Structure (SMILES) | Ratio |
| --- | --- |
| COc1cc2c(cc1OC)C1=NN(C(=O)Nc3ccc(F)cc3)C(c3ccc(F)cc3)C1C2 (centres undefined) | 16 |
| COc1cc2c(cc1OC)C1=NN(C(=O)Nc3ccc(F)c(Cl)c3)C(c3ccc(F)cc3)C1C2 (centres undefined) | 4 |

— ChEMBL document CHEMBL1806420, “Design, synthesis and antimycobacterial evaluation of novel 3-substituted-N-aryl-6,7-dimethoxy-3a,4-dihydro-3H-indeno[1,2-c]pyrazole-2-carboxamide analogues” (Bioorg Med Chem Lett, 2011)
